# Test results from patent US12447172B2, “Use of the miR-27a-5p microRNA for treating Clostridium difficile-induced bowel inflammation” (priority 2018, dated 2025).
# Tests used:
# [1] = test system: C. difficile wild-type strain R20291 infection
# [2] = test system: C. difficile wild-type strain R20291 infection; experiment: Clinical manifestations in the mouse model of CDI
# C. difficile = experiment: Bacterial count in cecal contents at D2 post-infection
# IκB-α (NF-κB pathway) = experiment: IκB-α Western blot of cecal lysates (NF-κB pathway activation); assay type: in vivo, C57BL/6 mice; settings: infected, mimic-treated mice, D2 post-infection
# [3] = test system: miR-27a-5p expression in Caco-2 cells; experiment: miR-27a-5p expression (qRT-PCR) in Caco-2 cells pretreated with NF-κB and MAPK pathway inhibitors, then incubated with FliC or C. difficile R20291; settings: 20 μM added 1 h before FliC or strain R20291
# [4] = mice infected with WT R20291, mimic 3 x 50 μg IV, D1 post-infection
# [5] = mice infected with WT R20291, mimic 3 x 50 μg IV, D2 post-infection
# [6] = uninfected mice (negative control) treated with mimic, D1
# [7] = uninfected mice (negative control) treated with mimic, D2
compound,measurement,setting,value
"miR-27a-mimic: Synthetic double-stranded RNA mimic by Riboxx (SEQ ID NO: 2/3, M-00303-0200 CONmiR Mimic in vivo), given IV mixed with in vivo-jetPEI (chain 1 AGGGCUUAGCUGCUUGUGACCCCC; chain 2 GGGGGUCACAAGCAGCUAAGCCCU; formulated with in vivo-jetPEI, further chemistry not given here)","mice with a cecum with little or no evidence of inflammation and normal, mucus-free cecal contents","[1]; infected, mimic-treated group, D2 post-infection",6 of 10
same,inflammatory appearance of the cecum,"[1]; infected, mimic-treated mice, D2 post-infection, macroscopic",largely attenuated
same,inflammation score of the 3 treated mice that showed diarrhea at D2,"[1]; infected, mimic-treated, D2 post-infection",high inflammation score comparable to infected and untreated mice
same,efficacy rate,"[1]; mouse model of infection, 3 of 10 treated mice affected",70%
same,histological inflammation score (Table 3),"[1]; mouse, in vivo",0
same,histologic score of inflammation (Table 3),"[1]; the infected, mimic-treated mice with little or no inflammation, D2, untreated infected mice 6 to 9",less than 6
same,Bristly hair D1 (animals affected/group),[2]; [4],0/10
same,Reduced activity D1 (animals affected/group),[2]; [4],0/10
same,Bristly hair D2 (animals affected/group),[2]; [5],0/10
same,Reduced activity D2 (animals affected/group),[2]; [5],1/10
same,Diarrhea D1 (animals affected/group),"[2]; mice infected with WT R20291, mimic/in vivo-jetPEI 3 x 50 μg IV, D1 post-infection",0/10
same,Diarrhea D2 (animals affected/group),"[2]; mice infected with WT R20291, mimic/in vivo-jetPEI 3 x 50 μg IV, D2 post-infection",3/10
same,Diarrhea D2 (animals affected/group),"[2]; mice infected with WT R20291, mimic/in vivo-jetPEI 3 x 50 μg IV, D2 post-infection, listed as miR27-a-mimic",3 out of 10
same,clinical and pathological manifestations caused by the bacteria,"[2]; mouse model of CDI, mimic administered intravenously",significantly reduces
same,Diarrhea D1 (animals affected/group),"[2]; uninfected mice (negative control) treated with mimic 3 x 50 μg IV, D1",0/9
same,Diarrhea D2 (animals affected/group),"[2]; uninfected mice (negative control) treated with mimic 3 x 50 μg IV, D2",0/9
same,Bristly hair D1 (animals affected/group),[2]; [6],0/9
same,Reduced activity D1 (animals affected/group),[2]; [6],0/9
same,Bristly hair D2 (animals affected/group),[2]; [7],0/9
same,Reduced activity D2 (animals affected/group),[2]; [7],0/9
same,bacterial count in the cecal contents,"C. difficile; WT-infected, mimic-treated mice",3.7 × 10^9 CFU/g
same,rate of intestinal colonization compared with untreated WT-infected mice,C. difficile; cecal contents,quite equivalent
same,IκB-α in the cecum (NF-κB pathway activation),IκB-α (NF-κB pathway),no activation of IκB-α was detected
Cc1ccc2nc(NCCN)c3ncc(C)n3c2c1 [BMS 345541],inhibition of miR-27a-5p expression,[3],roughly 40 fold
